Laboratory results from ChEMBL document CHEMBL1159196, “Lignans interfering with 5 alpha-dihydrotestosterone binding to human sex hormone-binding globulin” (J Nat Prod, 1998).

Tests used:
[1] = biological target: T1, Sex hormone-binding globulin (Homo sapiens, UniProt P04278); test: Displacement of [3H]DHT from human serum SHBG
T1 sequence (P04278 whole entry): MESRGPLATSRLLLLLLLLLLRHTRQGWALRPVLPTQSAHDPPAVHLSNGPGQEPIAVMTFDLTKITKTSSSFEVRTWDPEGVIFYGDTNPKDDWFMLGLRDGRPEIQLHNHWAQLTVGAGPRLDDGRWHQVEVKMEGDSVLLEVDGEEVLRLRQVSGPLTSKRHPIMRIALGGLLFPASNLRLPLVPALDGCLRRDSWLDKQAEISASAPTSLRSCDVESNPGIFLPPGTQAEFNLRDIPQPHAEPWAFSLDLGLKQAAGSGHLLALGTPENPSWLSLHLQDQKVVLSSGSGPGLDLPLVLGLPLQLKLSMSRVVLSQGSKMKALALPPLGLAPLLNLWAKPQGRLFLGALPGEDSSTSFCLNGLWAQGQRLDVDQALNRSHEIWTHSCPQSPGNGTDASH

[2] = biological target: T2, Sex hormone-binding globulin (Homo sapiens) (UniProt P04278); test: Binding affinity to SHBG
T2 sequence (whole entry): T1 sequence (P04278 whole entry)

[3] = biological target: T2, Sex hormone-binding globulin (Homo sapiens); test: Binding affinity to SHBG at 4 degC
[4] = biological target: T2, Sex hormone-binding globulin (Homo sapiens); test: Binding affinity to human serum SHBG at 4 degC by competitive inhibition assay

SMILES | IC50 [1] [µM] | Ka [2] | also measured
COc1cc(C[C@@H](CO)[C@H](CO)Cc2ccc(O)c(OC)c2)ccc1O [(+)-SECOISOLARICIRESINOL] | 230 | – | –
O=C1OCC(Cc2cccc(O)c2)C1Cc1cccc(O)c1 (racemic) | 620 | – | –
C[C@]12CC[C@H]3[C@@H](CCC4=CC(=O)CC[C@@]43C)[C@@H]1CC[C@@H]2O | – | 1 ×10⁹ /M | –
C[C@]12CCC(=O)C[C@@H]1CC[C@@H]1[C@@H]2CC[C@]2(C)[C@@H](O)CC[C@@H]12 | – | 2 ×10⁹ /M | –
COc1cc(C[C@H]2COC(=O)[C@@H]2Cc2ccc(O)c(OC)c2)ccc1O [MATAIRESINOL] | 52 | – | –
C[C@]12CC[C@@H]3c4ccc(O)cc4CC[C@H]3[C@@H]1CC[C@@H]2O | – | 5 ×10⁸ /M | –
COc1cc(C[C@H]2COC[C@@H]2Cc2ccc(O)c(OC)c2)ccc1O | – | – | Ka [3]: 0.98 ×10⁹ /M; Ka [4]: 3.2 ×10⁶ /M
